Converted amounts (≈) assume the structure as drawn.
Experiments:
Test in all cases: MIC, agar dilution
Format in all cases: cell-based
[1] = tested on: S. aureus Smith (Sensitive); details: S. aureus Smith (Sensitive)
[2] = tested on: S. aureus IVES 2943 (meth. resistant); details: S. aureus IVES 2943 (meth. resistant)
[3] = tested on: S. aureus UBMS 90-3 (Sensitive); details: S. aureus UBMS 90-3 (Sensitive)
[4] = tested on: S. aureus UBMS 88-7 (tetK); details: S. aureus UBMS 88-7 (tetK)
[5] = tested on: E. coli ATCC 25922; details: E. coli ATCC 25922
[6] = tested on: E. coli UBMS 88-2 (Sensitive); details: E. coli UBMS 88-2 (Sensitive)
[7] = tested on: S. haemolyticus AVAH 88-3; details: S. haemolyticus AVAH 88-3
[8] = tested on: E. faecalis 12201; details: E. faecalis 12201
[9] = tested on: E. coli UBMS 89-2 (Sensitive); details: E. coli UBMS 89-2 (Sensitive)
[10] = tested on: S. aureus UBMS 88-4 (Sensitive); details: S. aureus UBMS 88-4 (Sensitive)
[11] = tested on: S. aureus ATCC 29213 (Sensitive); details: S. aureus ATCC 29213 (Sensitive)
[12] = tested on: E. coli UBMS 88-1 (tetB); details: E. coli UBMS 88-1 (tetB)
[13] = tested on: S. aureus UBMS 90-2 (tetM); details: S. aureus UBMS 90-2 (tetM)
[14] = tested on: E. coli UBMS 89-1 (tetM); details: E. coli UBMS 89-1 (tetM)
[15] = tested on: S. aureus UBMS 88-5 (tetM); details: S. aureus UBMS 88-5 (tetM)
[16] = tested on: S. aureus UBMS 90-1 (tetM); details: S. aureus UBMS 90-1 (tetM)
[17] = tested on: E. faecalis ATCC 29212; details: E. faecalis ATCC 29212
[18] = tested on: S. aureus IVES 1983 (meth. resistant); details: S. aureus IVES 1983 (meth. resistant)

| Compound | MIC [1] [µg/mL] | MIC [2] [µg/mL] | MIC [3] [µg/mL] | MIC [4] [µg/mL] | MIC [5] | MIC [6] [µg/mL] | MIC [7] [µg/mL] | MIC [8] [µg/mL] | MIC [9] | MIC [10] [µg/mL] | MIC [11] | MIC [12] [µg/mL] | MIC [13] [µg/mL] | MIC [14] [µg/mL] | MIC [15] [µg/mL] | MIC [16] [µg/mL] | MIC [17] [µg/mL] | MIC [18] [µg/mL] |
| --- | --- | --- | --- | --- | --- | --- | --- | --- | --- | --- | --- | --- | --- | --- | --- | --- | --- | --- |
| CN(C)c1cc(NC(=O)c2cccc(C(F)(F)F)c2)c(O)c2c1CC1CC3C(N(C)C)C(O)=C(C(N)=O)C(=O)C3(O)C(O)=C1C2=O (stereo not drawn) [U, 7-(Dimethylamino)-9-[[3-(trifluoromethyl)benzoyl)amino]-6-demethyl-6-deoxytetracycline] | 1 (≈ 1.55 µM) | 1 (≈ 1.55 µM) | 0.5 (≈ 0.776 µM) | 1 (≈ 1.55 µM) | ≧32 μg/ml | >32 | 1 (≈ 1.55 µM) | 1 (≈ 1.55 µM) | ≧32 μg/ml | 0.5 (≈ 0.776 µM) | 0.5 µg/mL (≈ 0.776 µM) | >32 | 1 (≈ 1.55 µM) | >32 | 1 (≈ 1.55 µM) | 1 (≈ 1.55 µM) | 1 (≈ 1.55 µM) | 1 (≈ 1.55 µM) |
| CCN(CC)c1cc(NC(C)=O)c(O)c2c1CC1CC3C(N(C)C)C(O)=C(C(N)=O)C(=O)C3(O)C(O)=C1C2=O (stereo not drawn) [F, 9-(Acetylamino)-7-(diethylamino)-6-demethyl-6-deoxytetracycline] | 0.12 (≈ 0.221 µM) | 2 (≈ 3.69 µM) | 0.12 (≈ 0.221 µM) | 2 (≈ 3.69 µM) | 4 µg/mL (≈ 7.37 µM) | 32 (≈ 59 µM) | 2 (≈ 3.69 µM) | 4 (≈ 7.37 µM) | 32 µg/mL (≈ 59 µM) | 0.25 (≈ 0.461 µM) | ≦0.015 μg/ml | >32 | 0.5 (≈ 0.922 µM) | 4 (≈ 7.37 µM) | 0.5 (≈ 0.922 µM) | 2 (≈ 3.69 µM) | 0.25 (≈ 0.461 µM) | 4 (≈ 7.37 µM) |
| CCN(CC)c1cc(NC(C)=O)c(O)c2c1C[C@H]1C[C@H]3[C@H](N(C)C)C(O)=C(C(N)=O)C(=O)[C@@]3(O)C(O)=C1C2=O.O=S(=O)(O)O.O=S(=O)(O)O [Compound E, 9-(Acetylamino)-7-(diethylamino)-6-demethyl-6-deoxytetracycline disulfate] | 0.5 | 8 | 0.5 | 4 | 32 µg/mL | >32 | 8 | 16 | >32 µg/mL | 0.5 | ≦0.015 μg/ml | >32 | 2 | 32 | 4 | 8 | 2.0 | 16 |
| CN(C)c1cc(NC(=O)c2ccc(N)cc2)c(O)c2c1CC1CC3C(N(C)C)C(O)=C(C(N)=O)C(=O)C3(O)C(O)=C1C2=O.O=S(=O)(O)O (stereo not drawn) [X, 9-[(4-Aminobenzoyl)amino)-7-(dimethylamino)-6-demethyl-6-deoxytetracycline sulfate] | 1 | >32 | 1 | 8 | >32 µg/mL | >32 | 8 | 32 | >32 µg/mL | 1 | 0.5 µg/mL | >32 | 8 | >32 | 8 | 16 | 8 | >32 |
| [7S-(7α,10aα) ]-C(9-(Aminocarbonyl)-7-(dimethylamino)-5,5a,6,6a,7,10,10a,12-octahydro-1,8,10a,11-tetrahydroxy-10,12-dioxo-2-naphthacenyl]amino]oxoacetic acid ethyl ester | 2 | 32 | 1 | 8 | 32 µg/mL | >32 | 4 | 32 | >32 µg/mL | 2 | 0.25 µg/mL | >32 | 32 | >32 | 32 | >32 | 32 | >32 |
| CN(C)c1cc(NC(=O)c2cccs2)c(O)c2c1CC1CC3C(N(C)C)C(O)=C(C(N)=O)C(=O)C3(O)C(O)=C1C2=O (stereo not drawn) [Z, 7-(Dimethylamino)-9-[(2-thienylcarbonyl)amino]-6-demethyl-6-deoxytetracycline] | 2 (≈ 3.43 µM) | 32 (≈ 54.9 µM) | 2 (≈ 3.43 µM) | 32 (≈ 54.9 µM) | 32 µg/mL (≈ 54.9 µM) | >32 | 8 (≈ 13.7 µM) | 8 (≈ 13.7 µM) | >32 µg/mL | 8 (≈ 13.7 µM) | 0.5 µg/mL (≈ 0.858 µM) | >32 | 4 (≈ 6.87 µM) | >32 | 8 (≈ 13.7 µM) | 4 (≈ 6.87 µM) | 8 (≈ 13.7 µM) | 32 (≈ 54.9 µM) |
| CN(C)c1cc(NC(=O)CO)c(O)c2c1CC1CC3C(N(C)C)C(O)=C(C(N)=O)C(=O)C3(O)C(O)=C1C2=O (stereo not drawn) [L, 7-(Dimethylamino)-9-[(hydroxyacetyl)amino]-6-demethyl-6-deoxytetracycline] | 0.5 (≈ 0.942 µM) | >32 | 1 (≈ 1.88 µM) | >32 | 32 µg/mL (≈ 60.3 µM) | >32 | 16 (≈ 30.2 µM) | 4 (≈ 7.54 µM) | >32 µg/mL | 4 (≈ 7.54 µM) | 0.5 µg/mL (≈ 0.942 µM) | >32 | 2 (≈ 3.77 µM) | >32 | 4 (≈ 7.54 µM) | 8 (≈ 15.1 µM) | 2 (≈ 3.77 µM) | >32 |
| CN(C)c1cc(NC(=O)CN)c(O)c2c1CC1CC3C(N(C)C)C(O)=C(C(N)=O)C(=O)C3(O)C(O)=C1C2=O.O=C(O)C(F)(F)F (stereo not drawn) [M, 9-[(Aminoacetyl)amino]-7-(dimethylamino)-6-demethyl-6-deoxytetracycline mono(trifluoroacetate)] | 1 | >32 | 0.5 | >32 | 2 µg/mL | 2 | 1 | 0.25 | 2 µg/mL | 1 | 0.5 µg/mL | 2 | 0.5 | 2 | 1 | 2 | 0.25 | >32 |
| CN(C)c1cc(N(C)C)c2c(c1O)C(=O)C1=C(O)C3(O)C(=O)C(C(N)=O)=C(O)C(N(C)C)C3CC1C2 (stereo not drawn) [C, 7-(Dimethylamino)-9-(dimethylamino)-6-demethyl-6-deoxytetracycline] | 0.03 (≈ 0.0599 µM) | 1 (≈ 2 µM) | 0.03 (≈ 0.0599 µM) | 0.25 (≈ 0.499 µM) | 0.25 µg/mL (≈ 0.499 µM) | 0.25 (≈ 0.499 µM) | 0.12 (≈ 0.24 µM) | 0.5 (≈ 0.999 µM) | 0.5 µg/mL (≈ 0.999 µM) | 0.03 (≈ 0.0599 µM) | ≦0.015 μg/ml | 16 (≈ 32 µM) | 0.12 (≈ 0.24 µM) | 1 (≈ 2 µM) | 0.12 (≈ 0.24 µM) | 0.5 (≈ 0.999 µM) | 0.06 (≈ 0.12 µM) | 1 (≈ 2 µM) |
| CN(C)c1cc(NC(=O)COCc2ccccc2)c(O)c2c1CC1CC3C(N(C)C)C(O)=C(C(N)=O)C(=O)C3(O)C(O)=C1C2=O (stereo not drawn) [J, 7-(Dimethylamino)-9-([(phenylmethoxy)acetyl)amino]-6-demethyl-6-deoxytetracycline] | 0.5 (≈ 0.806 µM) | 4 (≈ 6.44 µM) | 0.5 (≈ 0.806 µM) | 2 (≈ 3.22 µM) | 32 µg/mL (≈ 51.6 µM) | >32 | 4 (≈ 6.44 µM) | 2 (≈ 3.22 µM) | >32 µg/mL | 2 (≈ 3.22 µM) | 0.06 µg/mL (≈ 0.0967 µM) | >32 | 2 (≈ 3.22 µM) | >32 | 4 (≈ 6.44 µM) | 4 (≈ 6.44 µM) | 4 (≈ 6.44 µM) | 4 (≈ 6.44 µM) |

Source: USRE40086E1, “Method for treating bacterial infection with novel 7-substituted-9-substituted amino 6-demethyl-6-deoxytetracyclines” (Wyeth Holdings Corporation, priority 1991, dated 2008)
